Structures are written as SMILES. Where only a bound is given, the exact number is not on record here.

From patent US20230203041A1, “ANTAGONISTS OF THE ADENOSINE A2A RECEPTOR” (AdoRx Therapeutics Limited, priority 2020, published 2023) come the findings set out here.

The target in experiment [1] is T1, human Adenosine A2a receptor (Homo sapiens, UniProt P29274).
T1 construct: expressed in transfected cells; host or cells: CHO cell membranes
Nature of the experiment: Adenosine receptor TR-FRET binding assay (CA200645 displacement), A2a. As to conditions: 100 nM CA200645, CHO cell membranes, 2 hours at room temperature.

The target of experiment [2] is T2, human Adenosine A2b receptor (Homo sapiens, UniProt P29275).
T2 construct: expressed in transfected cells; host or cells: CHO cell membranes
T2 sequence (P29275 1-332): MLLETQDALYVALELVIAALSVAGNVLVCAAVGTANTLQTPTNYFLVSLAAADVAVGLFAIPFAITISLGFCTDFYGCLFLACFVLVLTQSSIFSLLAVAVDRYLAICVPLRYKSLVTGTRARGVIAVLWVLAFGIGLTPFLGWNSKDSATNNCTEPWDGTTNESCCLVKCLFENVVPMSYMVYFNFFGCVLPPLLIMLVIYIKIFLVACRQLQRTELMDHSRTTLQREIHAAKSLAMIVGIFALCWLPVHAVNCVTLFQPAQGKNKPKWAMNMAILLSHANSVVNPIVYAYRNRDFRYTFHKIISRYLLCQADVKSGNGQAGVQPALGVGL
Put plainly: Adenosine receptor TR-FRET binding assay (CA200645 displacement), A2b. To be noted: 30 nM CA200645, CHO cell membranes, 2 hours at room temperature.

The test system of a further experiment is human PBMCs. Put plainly: CD3/CD28 stimulated IL-2 release NECA reversal assay in human PBMCs.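 Note: dose-response as % inhibition where 100% equals no-NECA control wells with CD3/CD28.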 The format is cell-based. To be noted: PBMC, CD3/CD28 antibody stimulated, 1 uM NECA, 24 hours, IL-2 in culture supernatant. The method in brief: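 PBMCs from citrated donor blood, 50,000 cells/well on plate-bound CD3 antibody (1 ug/ml), with 1 ug/ml CD28 antibody, 1 uM NECA and antagonist at 0.003-10 μM final. After 24 h at 37° C, supernatant IL-2 was measured by MSD immunoassay.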

The test system of experiment [3] is CD8+ T cells in human whole blood. Nature of the experiment: Measurement of pCREB in CD8+ T cells in human whole blood. As to conditions: T-cell, 1 h; heparinised human whole blood, rolipram, 3 μM NECA, 60 min, phospho-CREB in CD8+ T cells by FACS. The format is cell-based. In a few lines:
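Heparinised human whole blood preincubated 20 min at 37 °C with serially diluted A2a antagonists plus rolipram, then stimulated 60 min with 3 μM NECA (final). After fixation and RBC lysis, permeabilized leukocytes stained for phospho-CREB and CD8; pCREB in CD8+ T cells read by flow cytometry.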
Background: In flow cytometry, cells or beads pass a laser one at a time.

Experiment [4] concerns the target T3, human Adenosine A1 receptor (Homo sapiens, UniProt P30542).
T3 sequence (P30542 1-326): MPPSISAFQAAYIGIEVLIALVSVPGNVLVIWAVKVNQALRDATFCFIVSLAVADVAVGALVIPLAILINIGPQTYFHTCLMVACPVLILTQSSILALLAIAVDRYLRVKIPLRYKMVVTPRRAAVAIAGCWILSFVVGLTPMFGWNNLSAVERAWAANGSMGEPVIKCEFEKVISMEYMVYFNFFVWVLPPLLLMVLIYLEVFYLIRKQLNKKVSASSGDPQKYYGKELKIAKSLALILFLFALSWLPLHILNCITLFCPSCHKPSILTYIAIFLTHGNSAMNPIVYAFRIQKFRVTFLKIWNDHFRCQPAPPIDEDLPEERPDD
Put plainly: Adenosine receptor TR-FRET binding assay (CA200645 displacement), A1. In general terms: In TR-FRET formats the signal depends on donor and acceptor labels being close together.

Experiment [5] addresses T4, human Adenosine A3 receptor (Homo sapiens, UniProt P0DMS8).
T4 sequence (P0DMS8 1-318): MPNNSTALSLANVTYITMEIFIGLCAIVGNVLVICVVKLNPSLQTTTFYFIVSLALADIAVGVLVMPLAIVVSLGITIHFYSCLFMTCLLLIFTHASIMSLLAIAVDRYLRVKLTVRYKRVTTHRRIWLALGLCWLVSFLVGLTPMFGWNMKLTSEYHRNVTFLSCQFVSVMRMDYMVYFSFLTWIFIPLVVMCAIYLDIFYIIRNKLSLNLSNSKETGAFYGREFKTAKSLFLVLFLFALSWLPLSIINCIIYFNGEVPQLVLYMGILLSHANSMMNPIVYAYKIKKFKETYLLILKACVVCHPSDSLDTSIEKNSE
Put plainly: Adenosine receptor TR-FRET binding assay (CA200645 displacement), A3.

T1 sequence (P29274 whole entry): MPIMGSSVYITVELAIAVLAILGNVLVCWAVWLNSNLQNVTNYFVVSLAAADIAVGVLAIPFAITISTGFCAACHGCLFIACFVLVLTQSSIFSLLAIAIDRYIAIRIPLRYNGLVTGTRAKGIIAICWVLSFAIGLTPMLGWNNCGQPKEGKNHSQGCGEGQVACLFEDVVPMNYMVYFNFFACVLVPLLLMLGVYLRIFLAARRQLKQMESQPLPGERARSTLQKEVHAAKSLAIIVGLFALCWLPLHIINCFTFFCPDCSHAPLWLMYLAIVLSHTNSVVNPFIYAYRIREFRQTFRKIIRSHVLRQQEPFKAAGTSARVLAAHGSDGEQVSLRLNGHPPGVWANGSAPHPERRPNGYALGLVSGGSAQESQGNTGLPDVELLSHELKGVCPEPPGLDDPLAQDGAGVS

One may read the Ki as the dissociation constant of the complex between target and ligand, obtained from inhibition or displacement. A low value points to tighter binding. As a reminder, the IC50 is the concentration needed to halve the response being measured. As to `Cc1cc(-c2c(-c3cccc(C#N)c3)nn3ccc(C(=O)NCC(C)(O)CO)nc23)cc(C)n1` (stereo not drawn) [Example 92.1], the Ki is 0.0005 µM in experiment [1], 0.004 µM in experiment [2], 0.222 µM in experiment [4] and > 1 µM in experiment [5]. Moreover, the 50% inhibitory concentration (IC50) in the experiment on human PBMCs turned out to be 0.014 µM; in experiment [3] it was 0.11 µM.
Turning to `Cc1cc(-c2c(-c3cccc(C#N)c3)nn3ccc(C(=O)NC45CC(O)(C4)C5)nc23)cc(C)n1` [Example 92.2], the Ki was 0.0016 µM in experiment [1], 0.025 µM in experiment [2], 0.324 µM in experiment [4] and > 1 µM in experiment [5]. Further, the IC50 with human PBMCs was found to be 0.017 µM; in experiment [3], 0.35 µM.
`Cc1cc(-c2c(-c3cccc(C#N)c3)nn3ccc(C(=O)NCC4(O)COC4)nc23)cc(C)n1` [Example 92.3]: the Ki in experiment [1] is 0.002 µM; in experiment [2], 0.007 µM; in experiment [4] it was 0.212 µM; in experiment [5] it was > 1 µM. Besides, the 50% inhibitory concentration (IC50) was found to be 0.011 µM with human PBMCs and 0.26 µM in experiment [3].
Turning to `Cc1cc(-c2c(-c3cccc(C#N)c3)nn3ccc(C(=O)NCC4CCNC(=O)C4)nc23)cc(C)n1` (stereo not drawn) [Example 92.4], the Ki in experiment [1] was 0.0044 µM; in experiment [2], 0.023 µM; in experiment [4], 0.362 µM; in experiment [5], > 1 µM. Further, the figures for the half-maximal inhibitory concentration (IC50) (with human PBMCs; in experiment [3]) were 0.033 µM and 0.83 µM, respectively.
For `Cc1cc(-c2c(-c3cccc(C#N)c3)nn3ccc(NC(=O)C(C)(C)O)nc23)cc(Cl)n1` [Example 94, N-[3-(2-Chloro-6-methyl-4-pyridyl)-2-(3-cyanophenyl)pyrazolo[1,5-a]pyrimidin-5-yl]-2-hydroxy-2-methyl-propanamide], the inhibition constant Ki in experiment [1] is 0.001 µM; in experiment [2], 0.003 µM; in experiment [4], 0.124 µM; in experiment [5], > 1 µM. For the same molecule, the values for the IC50 (in the experiment on human PBMCs; in experiment [3]) were 0.027 µM and 1.72 µM, respectively.
On to `CC(=O)Nc1ccn2nc(-c3cccc(C#N)c3)c(-c3cc(C)nc(Cl)c3)c2n1` [Example 94.1, N-[3-(2-Chloro-6-methyl-4-pyridyl)-2-(3-cyanophenyl)pyrazolo[1,5-a]pyrimidin-5-yl]acetamide], for which the Ki in experiment [1] was 0.0018 µM; in experiment [2], 0.014 µM; in experiment [4] it was 0.099 µM; in experiment [5] it was > 1 µM. The 50% inhibitory concentration (IC50) is 0.026 µM with human PBMCs and 0.75 µM in experiment [3].
Consider `Cc1cc(-c2c(-c3cccc(C#N)c3)nn3ccc(NC(=O)CC(C)(C)O)nc23)cc(Cl)n1` [Example 94.2, N-[3-(2-chloro-6-methyl-4-pyridyl)-2-(3-cyanophenyl)pyrazolo[1,5-a]pyrimidin-5-yl]-3-hydroxy-3-methyl-butanamide], for which the inhibition constant Ki in experiment [1] was 0.0012 µM; in experiment [2], 0.007 µM; in experiment [4], 0.081 µM; in experiment [5], 2.05 µM. Besides, the IC50 in the experiment on human PBMCs turned out to be 0.02 µM; in experiment [3] it was 0.53 µM.
With `Cc1cc(-c2c(-c3cccc(C#N)c3)nn3ccc(NC(=O)CC(C)(C)O)nc23)cc(C)n1` [Example 94.4, N-[2-(3-Cyanophenyl)-3-(2,6-dimethyl-4-pyridyl)pyrazolo[1,5-a]pyrimidin-5-yl]-3-hydroxy-3-methyl-butanamide], the inhibition constant Ki in experiment [1] is 0.0017 µM; in experiment [2], 0.013 µM; in experiment [4] it was 0.079 µM; in experiment [5], > 1 µM. The figures for the half-maximal inhibitory concentration (IC50) (with human PBMCs; in experiment [3]) were 0.014 µM and 0.15 µM, respectively.
Take `Cc1cc(-c2c(-c3cccc(C#N)c3)nn3ccc(NC(=O)C(C)(C)O)nc23)cc(C)n1` [Example 94.5, N-[2-(3-cyanophenyl)-3-(2,6-dimethyl-4-pyridyl)pyrazolo[1,5-a]pyrimidin-5-yl]-2-hydroxy-2-methyl-propanamide]: the Ki is 0.0037 µM in experiment [1], 0.02 µM in experiment [2], 0.145 µM in experiment [4] and > 1 µM in experiment [5]. The results for the IC50 (with human PBMCs; in experiment [3]) were 0.016 µM and 0.59 µM, respectively.
As for `Cc1cc(-c2c(-c3cccc(C#N)c3)nn3ccc(C(=O)NCCC(C)(C)N)nc23)cc(C)n1` [Example 96, N-(3-Amino-3-methyl-butyl)-2-(3-cyanophenyl)-3-(2,6-dimethyl-4-pyridyl)pyrazolo[1,5-a]pyrimidine-5-carboxamide], the inhibitory constant (Ki) in experiment [1] was 0.0005 µM; in experiment [2] it was 0.007 µM; in experiment [4], 0.143 µM; in experiment [5], > 1 µM. Moreover, the IC50 in the experiment on human PBMCs turned out to be 0.01 µM; in experiment [3], 0.36 µM.
Turning to `Cc1cc(-c2c(-c3cccc(C#N)c3)nn3ccc(C(=N)N)nc23)cc(C)n1` [Example 97, 2-(3-Cyanophenyl)-3-(2,6-dimethyl-4-pyridyl)pyrazolo[1,5-a]pyrimidine-5-carboxamidine], the Ki is 0.0015 µM in experiment [1], 0.021 µM in experiment [2], 0.26 µM in experiment [4] and > 1 µM in experiment [5]. The 50% inhibitory concentration (IC50) with human PBMCs came out at 0.038 µM; in experiment [3], 0.58 µM.
For `CC(=O)NC(C)(C)CNC(=O)c1ccn2nc(-c3cccc(C#N)c3)c(-c3cc(C)nc(Cl)c3)c2n1` [Example 98, N-(2-Acetamido-2-methyl-propyl)-3-(2-chloro-6-methyl-4-pyridyl)-2-(3-cyanophenyl)pyrazolo[1,5-a]pyrimidine-5-carboxamide], the inhibition constant (Ki) in experiment [1] was determined as 0.0004 µM; in experiment [2], 0.009 µM; in experiment [4], 0.087 µM; in experiment [5] it was 0.655 µM. Further, the IC50 in the experiment with human PBMCs was determined as 0.003 µM; in experiment [3], 0.36 µM.
On to `Cc1cc(-c2c(-c3cccc(C#N)c3C)nn3ccc(C(=O)NCC(C)(C)O)nc23)cc(Cl)n1` [Example 102, 3-(2-Chloro-6-methyl-4-pyridyl)-2-(3-cyano-2-methyl-phenyl)-N-(2-hydroxy-2-methyl-propyl)pyrazolo[1,5-a]pyrimidine-5-carboxamide], for which the Ki in experiment [1] is 0.0005 µM; in experiment [2], 0.032 µM; in experiment [4], 0.233 µM; in experiment [5], > 1 µM. In addition, the IC50 in the experiment with human PBMCs was 0.016 µM; in experiment [3], 0.14 µM.
In the case of `Cc1cc(-c2c(-c3cccc(C#N)c3C)nn3ccc(C(=O)NCC(C)(C)O)nc23)cc(C)n1` [Example 103, 2-(3-Cyano-2-methyl-phenyl)-3-(2,6-dimethyl-4-pyridyl)-N-(2-hydroxy-2-methyl-propyl)pyrazolo[1,5-a]pyrimidine-5-carboxamide], the Ki in experiment [1] is 0.0003 µM; in experiment [2], 0.022 µM; in experiment [4], 0.298 µM; in experiment [5], > 1 µM. Moreover, the IC50 came out at 0.024 µM in the experiment with human PBMCs and 0.03 µM in experiment [3].
As for `Cc1cc(-c2c(-c3cccc(C#N)c3C)nn3ccc(C(=O)N[C@H](C)C(C)(C)O)nc23)cc(C)n1` [Example 104, 2-(3-Cyano-2-methyl-phenyl)-3-(2,6-dimethyl-4-pyridyl)-N-[(1R)-2-hydroxy-1,2-dimethyl-propyl]pyrazolo[1,5-a]pyrimidine-5-carboxamide], the Ki was 0.0009 µM in experiment [1], 0.33 µM in experiment [2], 0.735 µM in experiment [4] and > 1 µM in experiment [5]. Moreover, the half-maximal inhibitory concentration (IC50) in the experiment with human PBMCs was 0.01 µM; in experiment [3], 0.19 µM.
With `Cc1cc(-c2c(-c3cccc(C#N)c3C)nn3ccc(C(=O)N[C@@H](C)C(C)(C)O)nc23)cc(C)n1` [Example 104.1, 2-(3-Cyano-2-methyl-phenyl)-3-(2,6-dimethyl-4-pyridyl)-N-[(1S)-2-hydroxy-1,2-dimethyl-propyl]pyrazolo[1,5-a]pyrimidine-5-carboxamide], the Ki in experiment [1] is 0.0012 µM; in experiment [2] it was 0.111 µM; in experiment [4], 0.398 µM; in experiment [5], > 1 µM. For the same molecule, the 50% inhibitory concentration (IC50) in the experiment with human PBMCs is 0.004 µM; in experiment [3] it was 0.03 µM.
